Type in all cases: biochemical
Experiment [1] deals with T1, recombinant human MAO-B (monoamine oxidase-B) (Homo sapiens, UniProt P27338).
T1 construct: purchased Sigma-Aldrich
T1 sequence (P27338 1-520): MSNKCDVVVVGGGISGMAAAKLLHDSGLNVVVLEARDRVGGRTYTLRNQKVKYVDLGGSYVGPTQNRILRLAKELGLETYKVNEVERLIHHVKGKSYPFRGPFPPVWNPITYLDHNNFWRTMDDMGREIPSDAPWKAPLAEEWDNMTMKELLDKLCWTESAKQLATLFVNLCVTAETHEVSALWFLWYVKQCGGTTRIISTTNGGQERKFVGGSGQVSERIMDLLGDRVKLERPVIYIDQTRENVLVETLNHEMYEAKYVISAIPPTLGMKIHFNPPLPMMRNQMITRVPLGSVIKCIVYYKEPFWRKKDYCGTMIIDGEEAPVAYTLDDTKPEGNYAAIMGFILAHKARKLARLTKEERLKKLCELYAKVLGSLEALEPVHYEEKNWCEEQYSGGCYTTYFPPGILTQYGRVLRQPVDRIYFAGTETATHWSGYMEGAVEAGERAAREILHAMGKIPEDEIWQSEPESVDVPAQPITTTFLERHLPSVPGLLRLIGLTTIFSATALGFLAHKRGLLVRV
Kind of experiment: Activity evaluation on recombinant human MAO-B (Amplex Red/HRP-coupled assay, 1 mM benzylamine substrate). The settings on record: read-out: Inhibitory Activity (IC50, nM) MAO-B. The method in brief: (§1)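 Each oxidase is tested with its own substrate: MAO-A with 0.5 mM tyramine, MAO-B with 1 mM benzylamine, DAO with 1 mM putrescine. After 30 min enzyme-compound preincubation at 37 °C, Amplex Red (200 uM) plus HRP (1 U/mL) reports H2O2 as fluorescence; IC50 is fitted from eight-point curves.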

A further experiment concerns the target T2, recombinant human VAP-1 (Homo sapiens, UniProt Q16853).
T2 construct: purchased R&D systems
T2 sequence (Q16853 1-763): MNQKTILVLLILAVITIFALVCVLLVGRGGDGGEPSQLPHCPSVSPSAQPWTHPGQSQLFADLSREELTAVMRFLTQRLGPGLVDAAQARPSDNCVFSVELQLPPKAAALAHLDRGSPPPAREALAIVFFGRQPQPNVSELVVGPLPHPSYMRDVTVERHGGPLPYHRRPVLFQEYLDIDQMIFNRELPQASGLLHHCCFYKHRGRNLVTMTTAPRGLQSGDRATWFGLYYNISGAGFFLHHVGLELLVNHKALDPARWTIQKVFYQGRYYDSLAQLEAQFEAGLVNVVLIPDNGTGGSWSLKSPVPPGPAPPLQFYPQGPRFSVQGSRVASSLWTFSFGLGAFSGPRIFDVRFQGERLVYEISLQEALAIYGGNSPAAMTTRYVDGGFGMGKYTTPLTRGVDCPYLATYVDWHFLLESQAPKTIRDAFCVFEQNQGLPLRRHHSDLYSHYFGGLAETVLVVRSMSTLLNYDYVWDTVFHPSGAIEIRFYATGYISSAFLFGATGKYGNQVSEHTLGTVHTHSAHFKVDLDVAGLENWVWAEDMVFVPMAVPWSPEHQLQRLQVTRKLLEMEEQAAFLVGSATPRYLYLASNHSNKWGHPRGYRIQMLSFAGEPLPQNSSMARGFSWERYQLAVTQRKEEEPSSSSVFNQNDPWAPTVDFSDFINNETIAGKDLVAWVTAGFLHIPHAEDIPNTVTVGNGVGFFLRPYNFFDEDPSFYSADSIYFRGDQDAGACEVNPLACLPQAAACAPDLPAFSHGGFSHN
Briefly: Activity evaluation on recombinant human VAP-1 (Amplex Red/HRP-coupled hydrogen peroxide assay, benzylamine substrate). The settings on record: read-out: Inhibitory Activity (IC50, nM) human VAP-1. The method in brief: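 Hydrogen peroxide from benzylamine (1 mM) oxidation by human recombinant VAP-1 detected via HRP-coupled Amplex Red (200 uM) fluorescence, kinetic over 1–2 h. Enzyme and compound preincubated 30 min at 37 °C, pH 7.4 phosphate; 8-point dose response, signal-rate decrease versus DMSO control fitted to four-parameter logistic for IC50.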

The target in experiment [2] is T3, recombinant human MAO-A (monoamine oxidase-A) (Homo sapiens, UniProt P21397).
T3 construct: purchased Sigma-Aldrich
T3 sequence (P21397 1-527): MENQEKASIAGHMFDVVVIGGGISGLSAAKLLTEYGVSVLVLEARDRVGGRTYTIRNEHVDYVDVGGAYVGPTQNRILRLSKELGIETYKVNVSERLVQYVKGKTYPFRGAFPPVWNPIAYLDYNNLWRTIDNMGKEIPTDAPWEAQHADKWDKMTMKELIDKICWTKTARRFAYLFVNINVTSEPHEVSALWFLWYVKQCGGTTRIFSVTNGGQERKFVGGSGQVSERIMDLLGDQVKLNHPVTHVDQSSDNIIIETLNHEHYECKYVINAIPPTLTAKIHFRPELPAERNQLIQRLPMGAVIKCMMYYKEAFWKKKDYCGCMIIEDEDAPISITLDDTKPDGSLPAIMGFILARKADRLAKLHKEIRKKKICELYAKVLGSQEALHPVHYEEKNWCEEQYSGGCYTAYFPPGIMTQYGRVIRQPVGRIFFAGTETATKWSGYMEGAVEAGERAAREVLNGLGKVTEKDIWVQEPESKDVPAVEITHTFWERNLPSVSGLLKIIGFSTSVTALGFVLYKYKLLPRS
Briefly: Activity evaluation on recombinant human MAO-A (Amplex Red/HRP-coupled assay, 0.5 mM tyramine substrate). As to conditions: read-out: Inhibitory Activity (IC50, nM) MAO-A. The method in brief:
as §1

Experiment [3] concerns the target T4, recombinant human DAO (diamine oxidase) (Homo sapiens, UniProt P19801).
T4 construct: purchased R&D systems
T4 sequence (P19801 20-751): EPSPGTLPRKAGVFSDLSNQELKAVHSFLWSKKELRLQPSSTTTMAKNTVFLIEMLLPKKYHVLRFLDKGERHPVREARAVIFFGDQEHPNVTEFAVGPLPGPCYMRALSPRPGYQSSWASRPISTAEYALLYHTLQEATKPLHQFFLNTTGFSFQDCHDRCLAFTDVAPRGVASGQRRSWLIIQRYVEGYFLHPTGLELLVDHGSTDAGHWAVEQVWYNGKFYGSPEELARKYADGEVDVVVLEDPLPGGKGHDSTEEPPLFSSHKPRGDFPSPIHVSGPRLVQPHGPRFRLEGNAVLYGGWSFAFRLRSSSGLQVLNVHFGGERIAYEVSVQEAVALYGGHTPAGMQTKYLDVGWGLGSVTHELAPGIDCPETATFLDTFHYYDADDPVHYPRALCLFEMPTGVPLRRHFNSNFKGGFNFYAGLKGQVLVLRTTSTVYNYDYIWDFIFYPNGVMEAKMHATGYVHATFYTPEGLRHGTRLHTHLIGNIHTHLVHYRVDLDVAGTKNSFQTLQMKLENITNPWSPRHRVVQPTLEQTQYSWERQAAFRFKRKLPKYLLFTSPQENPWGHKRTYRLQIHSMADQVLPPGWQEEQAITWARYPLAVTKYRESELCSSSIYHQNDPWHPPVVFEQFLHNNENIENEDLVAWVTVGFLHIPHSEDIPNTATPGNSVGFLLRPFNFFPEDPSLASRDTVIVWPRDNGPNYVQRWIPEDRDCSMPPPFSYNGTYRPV
Kind of experiment: Activity evaluation on recombinant human DAO (Amplex Red/HRP-coupled assay, 1 mM putrescine substrate). The settings on record: read-out: Inhibitory Activity (IC50, nM) DAO. The method in brief:
as §1

The mark [4] stands for this setting: recombinant human VAP-1, benzylamine substrate.
Where [5] appears, read: recombinant human VAP-1, 30 min preincubation at 37° C., 1 mM benzylamine.

Where a name gives a salt, the structure may show the parent alone. Read-outs that look alike come from different tables or passages of the source.

Regarding `NCC(Cn1ncn(Cc2sc(-c3ccc4c(c3)OCO4)cc2F)c1=O)=C(F)F` [Example 300, 2-[2-(aminomethyl)-3,3-difluoro-allyl]-4-[[5-(1,3-benzodioxol-5-yl)-3-fluoro-2-thienyl]methyl]-1,2,4-triazol-3-one Trifluoroacetate], the IC50 in experiment [1] (1 mM benzylamine substrate) was 11100 nM; at recombinant human VAP-1 (setting [4]), 1.7 nM; in experiment [2] (0.5 mM tyramine substrate) it was greater than 100000 nM; in experiment [3] (1 mM putrescine substrate), 25300 nM.

For `CS(=O)(=O)c1ccc(-c2ccc(-n3cnn(CC(CN)=C(F)F)c3=O)cn2)cc1` [Example 38, 2-[2-(aminomethyl)-3,3-difluoro-allyl]-4-[6-(4-methylsulfonylphenyl)-3-pyridyl]-1,2,4-triazol-3-one Trifluoroacetate], the IC50 in experiment [1] (1 mM benzylamine) was 450 nM; at recombinant human VAP-1 (setting [5]) it was 0.4 nM; in experiment [2] (0.5 mM tyramine), greater than 100000 nM; in experiment [3] (1 mM putrescine) it was 24 nM.

On to `Cc1cc(-c2cnc(-n3cnn(CC(CN)=C(F)F)c3=O)c(F)c2)cc2c1NC(=O)CC2` [Example 86, 6-[6-[1-[2-(aminomethyl)-3,3-difluoro-allyl]-5-oxo-1,2,4-triazol-4-yl]-5-fluoro-3-pyridyl]-8-methyl-3,4-dihydro-1H-quinolin-2-one Trifluoroacetate], for which the IC50 was 640 nM in experiment [1] (1 mM benzylamine), 0.1 nM on recombinant human VAP-1 (setting [5]), greater than 100000 nM in experiment [2] (0.5 mM tyramine) and 33 nM in experiment [3] (1 mM putrescine).

`NCC(Cn1ncn(-c2cnc(Br)cn2)c1=O)=C(F)F` [Example 16, 2-[2-(aminomethyl)-3,3-difluoro-allyl]-4-(5-bromopyrazin-2-yl)-1,2,4-triazol-3-one Trifluoroacetate]: the IC50 in experiment [1] (1 mM benzylamine) was 38000 nM; at recombinant human VAP-1 (setting [5]) it was 4.6 nM; in experiment [2] (0.5 mM tyramine) it was greater than 100000 nM; in experiment [3] (1 mM putrescine), 1100 nM.

Take `Cc1cc(-c2cc(F)c(Cn3cnn(CC(CN)=C(F)F)c3=O)s2)cc2c1NC(=O)CC2` [Example 304, 6-(5-((1-(2-(aminomethyl)-3,3-difluoroallyl)-5-oxo-1,5-dihydro-4H-1,2,4-triazol-4-yl)methyl)-4-fluorothiophen-2-yl)-8-methyl-3,4-dihydroquinolin-2(1H)-one Trifluoroacetate]: the concentration for half-maximal inhibition (IC50) is greater than 100000 nM in experiment [1] (1 mM benzylamine substrate), 0.7 nM on recombinant human VAP-1 (setting [4]), greater than 100000 nM in experiment [2] (0.5 mM tyramine substrate) and 12600 nM in experiment [3] (1 mM putrescine substrate).

As for `CN(C)C(=O)c1cccc(-c2ccc(Cn3cnn(CC(CN)=C(F)F)c3=O)s2)c1` [Example 181, 3-[5-[[1-[2-(aminomethyl)-3,3-difluoro-allyl]-5-oxo-1,2,4-triazol-4-yl]methyl]-2-thienyl]-N,N-dimethyl-benzamide trifluoroacetate], the IC50 in experiment [1] (1 mM benzylamine substrate) was greater than 100000 nM; on recombinant human VAP-1 (setting [4]), 2.3 nM; in experiment [2] (0.5 mM tyramine substrate) it was greater than 100000 nM; in experiment [3] (1 mM putrescine substrate), greater than 10000 nM.

For `Cc1cc(-c2ccc(Cn3cnn(CC(CN)=C(F)F)c3=O)s2)cc2ccc(=O)[nH]c12` [Example 135, 6-[5-[[1-[2-(aminomethyl)-3,3-difluoro-allyl]-5-oxo-1,2,4-triazol-4-yl]methyl]-2-thienyl]-8-methyl-1H-quinolin-2-one Trifluoroacetate], the IC50 in experiment [1] (1 mM benzylamine) was greater than 100000 nM; on recombinant human VAP-1 (setting [5]), 0.4 nM; in experiment [2] (0.5 mM tyramine), greater than 100000 nM; in experiment [3] (1 mM putrescine) it was 79000 nM.

As to `NCC(Cn1ncn(Cc2ccc(-c3cnn(Cc4ccccc4)c3)s2)c1=O)=C(F)F` [Example 297, 2-[2-(aminomethyl)-3,3-difluoro-allyl]-4-[[5-(1-benzylpyrazol-4-yl)-2-thienyl]methyl]-1,2,4-triazol-3-one Trifluoroacetate], the IC50 in experiment [1] (1 mM benzylamine substrate) was greater than 100000 nM; at recombinant human VAP-1 (setting [4]), 1.9 nM; in experiment [2] (0.5 mM tyramine substrate) it was greater than 100000 nM; in experiment [3] (1 mM putrescine substrate), 14800 nM.

`NCC(Cn1ncn(-c2ncc(-c3ccc(C(F)(F)F)nc3)cc2F)c1=O)=C(F)F` [Example 84, 2-[2-(aminomethyl)-3,3-difluoro-allyl]-4-[3-fluoro-5-[6-(trifluoromethyl)-3-pyridyl]-2-pyridyl]-1,2,4-triazol-3-one Trifluoroacetate]: the IC50 is 900 nM in experiment [1] (1 mM benzylamine), 0.2 nM on recombinant human VAP-1 (setting [5]), greater than 100000 nM in experiment [2] (0.5 mM tyramine) and 7 nM in experiment [3] (1 mM putrescine).

`CCn1cc(-c2cccc(-c3ccc(Cn4cnn(CC(CN)=C(F)F)c4=O)s3)c2)cn1` [Example 287, 2-[2-(aminomethyl)-3,3-difluoro-allyl]-4-[[5-[3-(1-ethylpyrazol-4-yl)phenyl]-2-thienyl]methyl]-1,2,4-triazol-3-one Trifluoroacetate]: the IC50 in experiment [1] (1 mM benzylamine substrate) is 12100 nM; at recombinant human VAP-1 (setting [4]), 0.7 nM; in experiment [2] (0.5 mM tyramine substrate), greater than 100000 nM; in experiment [3] (1 mM putrescine substrate), 13900 nM.

With `Cc1cc(-n2cnn(CC(CN)=C(F)F)c2=O)cnc1-c1ccc(N(C)C)nc1` [Example 78, 2-[2-(aminomethyl)-3,3-difluoro-allyl]-4-[6-[6-(dimethylamino)-3-pyridyl]-5-methyl-3-pyridyl]-1,2,4-triazol-3-one Trifluoroacetate], the IC50 was 9800 nM in experiment [1] (1 mM benzylamine), 0.6 nM on recombinant human VAP-1 (setting [5]), greater than 100000 nM in experiment [2] (0.5 mM tyramine) and 57 nM in experiment [3] (1 mM putrescine).

The record behind these values is patent publication US11168073B2, “3,3-difluoroallylamines or salts thereof and pharmaceutical compositions comprising the same” (YUHAN CORPORATION, priority 2018, dated 2021).
